We go through 2 compounds from patent US9585391B2, “Pesticidal mixtures” (priority 2009, dated 2017).

What all share (assay type): in vivo
The subject of assay [1] is wheat leaves. In words: relative weight loss of detached wheat leaves (drought tolerance). Particulars: for fresh weight loss: applied alone. The method, then:
The relative weight loss of wheat leaves treated or not treated with fluxapyroxad, dicamba, and mixtures thereof as an indirect parameter for increased drought tolerance was assessed. Leaves of 10 to 14 days old wheat plants were detached and placed into Eppendorf caps containing 2.2 ml of the test solution as described below. The wheat leaves were incubated for 24 h at 25° C. and 50% relative humidity in a growth chamber. After incubation, the incubated leaves were removed from the solution and placed on filter paper in a growth chamber for 60 minutes (25° C., 50% rel. humidity). Fresh biomass of the leaves was assessed directly after incubation and in addition after 60 minutes. The difference in fresh weight was recorded as relative weight loss. The relative loss of fresh weight is calculated as: [formula] In the present example wheat plants of the variety ‘Monopol’ were grown at 18° C. for 10 days in the greenhouse prior to the treatment and the incubation. 10 plants per treatment were treated and incubated as described. Fluxapyroxad and dicamba were dissolved on 0.5% DMSO. Tested concentrations are described in table 4. Control plants were treated with the blank 0.5% DMSO solution only. The efficacy of the tested compounds and mixtures was calculated as % of relative weight loss compared to the control: […] The expected efficacies of the combinations of the compounds were estimated using Colby's formula (Colby, S.

Assay [2] has as its system cucumber cotyledons. The assay can be described thus: growth (biomass) of cucumber cotyledons. Particulars: for stimulation of the growth of the cotyledons: applied alone; for Mean cotyledon biomass: 4 days in the dark at 21.5° C.; for Observed efficacy: % biomass increase compared to the control. How it is done: The effect of fluxapyroxad solo, dicamba solo and a mixture comprising both compounds on the growth (biomass) of cucumber cotyledons was evaluated. […] Subsequently, 20 to 30 cotyledons per treatment were cut and placed in a Petri dish containing 10 ml of the treatment solution as described below. Control cotyledons were treated with the 0.5% DMSO solution only. Following the incubation in the dark at 21.5° C. for 4 days the cotyledons were weight and the fresh biomass recorded (table 2). […] The efficacy of the tested active ingredients was calculated as % of biomass increase compared to the control: E=(a/b−1)·100 a corresponds to biomass of cotyledons after incubation in the treated plants in g; and b corresponds to biomass of cotyledons after incubation in the control in g. […] The expected efficacies of the combinations of the active ingredients were estimated using Colby's formula (Colby, S.

Assay [3] has as its system wheat plants. The assay can be described thus: water loss through transpiration of cut wheat plants (drought tolerance). The conditions noted are these: for transpiration (water loss): applied alone. The method, then: The transpiration as an direct indicator of water stress of wheat plants treated or not treated with fluxapyroxad solo, dicamba solo, and respective mixtures thereof was assessed. 10 to 14 days old wheat plants were cut above the ground and placed into Eppendorf caps containing 2.2 ml of the test solution as described below. The wheat plants were incubated for 24 h at 25° C. and 50% relative humidity in a growth chamber. The weight of the Eppendorf cap including the test solution but excluding the plant was assessed before and after incubation. The difference in weight was recorded as the loss of water through transpiration. This assay was used to asses the drought tolerance of the plants. In the present example wheat plants of the variety ‘Monopol’ were grown at 18° C. for 10 days in the greenhouse prior to the treatment and the incubation. 10 plants per treatment were treated and incubated as described. Fluxapyroxad and dicamba were dissolved on 0.5% DMSO. The tested concentrations are described in table 3. Control plants were treated with the blank 0.5% DMSO solution only. The efficacy of the tested compounds and mixtures was calculated as % of water loss compared to the control; […] The expected efficacies of the combinations of the compounds were estimated using Colby's formula (Colby, S.

With `COc1c(Cl)ccc(Cl)c1C(=O)O` [Dicamba, dicamba], in assay [1], the fresh weight loss entry is reported as “reduced fresh weight loss”. The “Mean relative weight loss” value in assay [1] (dicamba 1.25 ppm) was found to be 17.09%; in assay [1] (dicamba 12.5 ppm) it was 15.74%. Besides, the Observed efficacy in assay [1] (dicamba 1.25 ppm) is listed as 10.69%; in assay [1] (dicamba 12.5 ppm), 17.76%; in assay [2] (dicamba 1.25 ppm), 0.2%; in assay [3] (dicamba 1.25 ppm), −4.8%; in assay [3] (dicamba 12.5 ppm) it was −2.7%; in assay [3] (dicamba 125 ppm) it was 1.1%. The “stimulation of the growth of the cotyledons” value in assay [2] is reported as “no stimulation of the growth”. Besides, in assay [2] (dicamba 1.25 ppm), the Mean cotyledon biomass was 48.2 mg. The Mean water loss in assay [3] (dicamba 1.25 ppm) is listed as 0.781 g; in assay [3] (dicamba 12.5 ppm), 0.765 g; in assay [3] (dicamba 125 ppm), 0.737 g. Also, the “transpiration (water loss)” value in assay [3] (lower concentrations) is reported as “increased transpiration”.
`Cn1cc(C(=O)Nc2ccccc2-c2cc(F)c(F)c(F)c2)c(C(F)F)n1` [Fluxapyroxad, N-(3′,4′,5′-trifluorobiphenyl-2-yl)-3-difluoromethyl-1-methyl-1H-pyrazole-4-carboxamide]: the fresh weight loss entry in assay [1] is recorded as “reduced fresh weight loss”. Also, the “Mean relative weight loss” value was determined as 17.62% in assay [1] (fluxapyroxad 10 ppm, 24 h incubation, then 60 minutes on filter paper (25° C., 50% rel. humidity)) and 13.61% in assay [1] (fluxapyroxad 50 ppm). For the same compound, the Observed efficacy in assay [1] (fluxapyroxad 10 ppm, relative weight loss compared to the control) is recorded as 7.94%; in assay [1] (fluxapyroxad 50 ppm), 28.89%; in assay [2] (fluxapyroxad 5 ppm), −1.9%; in assay [3] (fluxapyroxad 10 ppm, water loss compared to the control), −42.4%; in assay [3] (fluxapyroxad 50 ppm) it was 11.5%; in assay [3] (fluxapyroxad 100 ppm), 18.5%. In addition, the “stimulation of the growth of the cotyledons” value in assay [2] was “no stimulation of the growth”. In addition, in assay [2] (fluxapyroxad 5 ppm), the Mean cotyledon biomass is 47.1 mg. In addition, the Mean water loss in assay [3] (fluxapyroxad 10 ppm, 24 h at 25° C., 50% relative humidity) turned out to be 1.061 g; in assay [3] (fluxapyroxad 50 ppm), 0.660 g; in assay [3] (fluxapyroxad 100 ppm) it was 0.607 g. Also, the “transpiration (water loss)” value in assay [3] (higher concentrations) is reported as “decreased transpiration”; in assay [3] (lower concentrations), “increased transpiration”.
